Results taken from the supplement of paper PMC10307832.

Assays:
Test in all cases: relative viability (nuclei count vs DMSO), 5 days (fraction); higher = more cells survive
CAP-232 + Lapatinib = compound: C[C@H]([C@@H](C(=O)N)NC(=O)[C@@H]1CSSC[C@@H](C(=O)N[C@H](C(=O)N[C@@H](C(=O)N[C@H](C(=O)N1)CCCCN)CC2=CNC3=CC=CC=C32)CC4=CC=C(C=C4)O)NC(=O)[C@@H](CC5=CC=CC=C5)N)O [CAP-232] + CS(=O)(=O)CCNCc1ccc(-c2ccc3ncnc(Nc4ccc(OCc5cccc(F)c5)c(Cl)c4)c3c2)o1 [Lapatinib] (partner 2 µM)
How it was run: (§1)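 Relative viability equals treated-well nuclei counts divided by vehicle-well nuclei counts. Counts came from 4× images of lung cancer cell lines grown in 1536-well plates for 5 days after pin-tool dosing on the day after seeding. Dosing used one drug alone or a fixed anchor-drug dose plus five library-drug doses (not always all listed) in √10 steps, and values are medians of duplicate plates.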

CAP-232 + Alpelisib = compound: C[C@H]([C@@H](C(=O)N)NC(=O)[C@@H]1CSSC[C@@H](C(=O)N[C@H](C(=O)N[C@@H](C(=O)N[C@H](C(=O)N1)CCCCN)CC2=CNC3=CC=CC=C32)CC4=CC=C(C=C4)O)NC(=O)[C@@H](CC5=CC=CC=C5)N)O [CAP-232] + Cc1nc(NC(=O)N2CCC[C@H]2C(N)=O)sc1-c1ccnc(C(C)(C)C(F)(F)F)c1 [Alpelisib] (partner 2 µM)
How it was run: as §1

CAP-232 + Dasatinib = compound: C[C@H]([C@@H](C(=O)N)NC(=O)[C@@H]1CSSC[C@@H](C(=O)N[C@H](C(=O)N[C@@H](C(=O)N[C@H](C(=O)N1)CCCCN)CC2=CNC3=CC=CC=C32)CC4=CC=C(C=C4)O)NC(=O)[C@@H](CC5=CC=CC=C5)N)O [CAP-232] + Cc1nc(Nc2ncc(C(=O)Nc3c(C)cccc3Cl)s2)cc(N2CCN(CCO)CC2)n1 [Dasatinib] (partner 0.075 µM)
How it was run: as §1

CAP-232 + Phenformin = compound: C[C@H]([C@@H](C(=O)N)NC(=O)[C@@H]1CSSC[C@@H](C(=O)N[C@H](C(=O)N[C@@H](C(=O)N[C@H](C(=O)N1)CCCCN)CC2=CNC3=CC=CC=C32)CC4=CC=C(C=C4)O)NC(=O)[C@@H](CC5=CC=CC=C5)N)O [CAP-232] + N=C(N)NC(=N)NCCc1ccccc1 [Phenformin] (partner 250 µM)
How it was run: as §1

CAP-232 + AZD7762 = compound: C[C@H]([C@@H](C(=O)N)NC(=O)[C@@H]1CSSC[C@@H](C(=O)N[C@H](C(=O)N[C@@H](C(=O)N[C@H](C(=O)N1)CCCCN)CC2=CNC3=CC=CC=C32)CC4=CC=C(C=C4)O)NC(=O)[C@@H](CC5=CC=CC=C5)N)O [CAP-232] + NC(=O)Nc1cc(-c2cccc(F)c2)sc1C(=O)N[C@H]1CCCNC1 [AZD7762] (partner 0.2 µM)
How it was run: as §1

Cell Line	relative viability (CAP-232 + Lapatinib; first compound 0.4 µM)	relative viability (CAP-232 + Lapatinib; first compound 1.265 µM)	relative viability (CAP-232 + Lapatinib; first compound 4 µM)	relative viability (CAP-232 + Lapatinib; first compound 12.65 µM)	relative viability (CAP-232 + Alpelisib; first compound 0.4 µM)	relative viability (CAP-232 + Alpelisib; first compound 1.265 µM)	relative viability (CAP-232 + Alpelisib; first compound 4 µM)	relative viability (CAP-232 + Alpelisib; first compound 12.65 µM)	relative viability (CAP-232 + Dasatinib; first compound 0.4 µM)	relative viability (CAP-232 + Dasatinib; first compound 1.265 µM)	relative viability (CAP-232 + Dasatinib; first compound 4 µM)	relative viability (CAP-232 + Dasatinib; first compound 12.65 µM)	relative viability (CAP-232 + Phenformin; first compound 0.4 µM)	relative viability (CAP-232 + Phenformin; first compound 1.265 µM)	relative viability (CAP-232 + Phenformin; first compound 4 µM)	relative viability (CAP-232 + Phenformin; first compound 12.65 µM)	relative viability (CAP-232 + AZD7762; first compound 0.4 µM)	relative viability (CAP-232 + AZD7762; first compound 1.265 µM)	relative viability (CAP-232 + AZD7762; first compound 4 µM)	relative viability (CAP-232 + AZD7762; first compound 12.65 µM)
NCI-H2009	1.02	0.896	0.913	0.848	1.17	1.08	1.13	1.03	0.288	0.278	0.273	0.195	0.501	0.493	0.547	0.42				
NCI-H2023	0.743	0.761	0.797	0.38	0.711	0.592	0.637	0.237	0.696	0.598	0.608	0.137	0.448	0.388	0.417	0.188				
NCI-H2228	1.32	0.907	1.66	0.904	0.816	0.572	0.777	0.848	0.482	0.565	0.479	0.365	0.38	0.253	0.409	0.221				
NCI-H2342									0.308	0.334	0.291	0.321	0.572	0.562	0.629	0.551	0.478	0.539	0.586	0.574
SK-LU-1	0.869	0.809	0.8	0.979	1	1.11	1.07	0.96	0.174	0.176	0.158	0.17	0.503	0.553	0.67	0.482				
SK-MES-1	0.534	0.469	0.419	0.473	0.997	0.944	1.06	0.938	0.339	0.317	0.341	0.203	0.684	0.663	0.693	0.521				
SW 900									0.644	0.614	0.64	0.591	0.644	0.527	0.722	0.457	0.666	0.604	0.515	0.547
SW 1573	1.06	1.12	1.21	1.13	0.744	0.861	0.8	0.672	0.416	0.493	0.603	0.0706	0.337	0.413	0.421	0.163				
UMC-11	1.02	0.907	1.14	1.08	1.06	1.04	1.16	0.777	0.621	0.494	0.587	0.316	0.309	0.28	0.332	0.295				
